Where two headings read alike, the source gives them in different places.
System: fetal rat midbrain neurons
Test: Survival rate of primary midbrain neurons induced by MPP+ (CCK-8)
Format: cell-based
Details: Rattus norvegicus, Neuron, read-out: Survival rate (%)
Text: The main pathological feature of Parkinson's disease (PD) lies in the degeneration and loss of dopaminergic neuron in the substantia nigra-striatum of the midbrain. 1-Methyl-4-phenylpyridinium (MPP+) has a high affinity to dopamine carriers and a selective toxicity on dopaminergic neurons. Thus, MPP+ is one of the most ideal classic neurotoxins for establishing PD cell models. The primary cell culture of fetal rat midbrain is often used to establish PD cell models in recent years. Although it is more cumbersome and has higher technical requirements than cell line culture, it is closer to the pathological characteristics of PD. Thus, a PD cell model is established using neurons from the primary cell culture of fetal rat midbrain under MPP+ induction, to evaluate the protective effect of target compounds on the model neurons.
The midbrain was separated from a fetal rat of a 15-day-pregnant SD rat and cut into pieces, then subjected to trypsin digestion, pipetting, screen filtration, and resuspension steps, and inoculated in a 24-well cell culture plate pre-coated with poly-D-lysine. 12 hours after culture, cytarabine was added to inhibit the growth of glial cells. On the 5th day of neuron growth, the toxin MPP+ can be added to make a PD cell model. When detecting the activity of a target compound, the target compound was pre-incubated with midbrain neurons for 3 h, then MPP+ was added, and after 48 h co-incubation the neuronal viability was detected by CCK-8 method and the neuronal survival rate was calculated to evaluate the inhibitory activity of the target compound on the midbrain neuronal PD damage. The experiment included blank control group, MPP+ model group, positive control group (caffeic acid phenethyl ester, CAPE), prototype control group (styryl sulfone compounds 3B, 3C, 3D, and 3G), and target compound group (prepared according to Examples 1-22 in the invention).

[1] = 5 μM, 3 h pre-incubation, 48 h with MPP+
[2] = 10 μM, 3 h pre-incubation, 48 h with MPP+
[3] = 20 μM, 3 h pre-incubation, 48 h with MPP+

SMILES | viability at 5 µM [1] [%] | viability at 10 µM [2] [%] | viability at 20 µM [3] [%] | viability at 5 µM (48 h) [%] | viability at 10 µM (48 h) [%] | viability at 20 µM (48 h) [%]
C=CCOc1ccc(C/C=C/S(=O)(=O)/C=C/c2ccc(OC(C)=O)c(OC(=O)N(CC=C)CC=C)c2)cc1 [Compound K1-4, 4-{(E)-2-[(E)-3-(4-allyloxyphenyl)prop-1-en-1-yl]sulfonylethenyl}-2-(N,N-diallylcarbamoyloxy)phenyl acetate] | 76.7 ± 3.17 | 87.1 ± 2.56 | 93.2 ± 1.81 | – | – | –
CC(Br)C(Br)COc1cc(/C=C/S(=O)(=O)CCc2ccc(OCC(F)(F)F)cc2)ccc1OC(=O)Nc1ccsc1 (stereo not drawn) [Compound K1-3, (E)-2-(2,3-dibromobutoxy)-4-{2-[4-(2,2,2-trifluoroethoxy)phenylethylsulfonyl]ethenyl}phenyl-N-(thien-3-yl)carbamate] | 65.4 ± 4.31 | 72.1 ± 2.77 | 83.2 ± 1.76 | – | – | –
O=S(=O)(/C=C/c1ccc(O)c(O)c1)CCCc1ccccc1 [Compound 3C, (E)-4-{2-[(3-phenylpropyl)sulfonyl]ethenyl}benzene-1,2-diol, reference compound] | 61.3 ± 3.22 | 75.7 ± 1.98 | 74.2 ± 4.55 | – | – | –
CNC(=O)Oc1ccc(/C=C/S(=O)(=O)CC(Cl)c2ccc(Cl)c([N+](=O)[O-])c2)cc1O (stereo not drawn) [Compound E2-2, (E)-4-{2-[2-chloro-2-(4-chloro-3-nitrophenyl)ethylsulfonyl]ethenyl}-2-hydroxyphenyl-N-methylcarbamate] | – | – | – | 58.1 ± 4.27 | 69.3 ± 2.33 | 86.1 ± 2.06
